Test results: ChEMBL document CHEMBL5137073, “Optimization and Mechanistic Investigations of Novel Allosteric Activators of PKG1α” (J Med Chem, 2022)
≈ marks a conversion by molar mass, not a printed value.

How the values were obtained:
[1] = Solubility of compound at pH 7; format: physicochemical; conditions: buffer
[2] = target: T1, cGMP-dependent protein kinase 1 (Homo sapiens, UniProt Q13976); assay: Activation of basal state recombinant PKG1alpha (unknown origin) using Glass-tide peptide substrate incubated for 30 mins followed by ATP addition and measured after 2 hr by ADP-GLO Max Assay
T1 sequence (Q13976 whole entry): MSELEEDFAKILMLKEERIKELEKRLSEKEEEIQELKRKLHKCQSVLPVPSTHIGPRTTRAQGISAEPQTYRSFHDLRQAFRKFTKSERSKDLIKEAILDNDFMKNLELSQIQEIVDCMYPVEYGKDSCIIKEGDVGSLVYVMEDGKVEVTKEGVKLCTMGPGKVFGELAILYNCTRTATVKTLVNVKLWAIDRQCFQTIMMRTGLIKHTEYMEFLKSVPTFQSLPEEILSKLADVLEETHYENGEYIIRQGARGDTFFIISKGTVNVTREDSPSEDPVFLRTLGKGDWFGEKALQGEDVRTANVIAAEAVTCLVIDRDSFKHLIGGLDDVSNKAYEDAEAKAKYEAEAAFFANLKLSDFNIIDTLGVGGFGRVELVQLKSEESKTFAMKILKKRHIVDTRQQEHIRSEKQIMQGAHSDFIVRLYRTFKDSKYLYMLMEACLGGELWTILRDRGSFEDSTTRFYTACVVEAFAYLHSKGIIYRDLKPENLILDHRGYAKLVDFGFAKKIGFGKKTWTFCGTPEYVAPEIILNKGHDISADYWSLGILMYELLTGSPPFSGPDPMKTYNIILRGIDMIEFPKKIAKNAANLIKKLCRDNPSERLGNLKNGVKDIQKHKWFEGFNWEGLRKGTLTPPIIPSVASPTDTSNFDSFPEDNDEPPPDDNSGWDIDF

[3] = target: T1, cGMP-dependent protein kinase 1; assay: Activation of cGMP induced partially activated state recombinant PKG1alpha (unknown origin) using Glass-tide peptide substrate incubated for 30 mins followed by ATP addition and measured after 2 hr in presence of cGMP by ADP-GLO Max Assay
[4] = target: T1, cGMP-dependent protein kinase 1
Description: Activation of PKG1alpha in human HEK293 cells stably expressing VASP assessed as VSAP phosphorylation at Ser 239 incubated for 45 mins by HTRF assay

[5] = Apparent permeability in dog MDCK-II cells; format: ADME, cell-based, Canis lupus familiaris
[6] = MRT in Wistar Han male rat plasma at 1 mg/kg, iv and measured upto 8 hrs post dose by LC-MS/MS analysis; format: ADME, organism-based
[7] = Solubility of compound at pH 2; format: physicochemical; conditions: buffer
[8] = Oral bioavailability in Wistar Han male rat plasma at 5 mg/kg and measured upto 8 hrs by LC-MS/MS analysis; format: ADME, organism-based
[9] = Volume of distribution in Wistar Han male rat plasma at 1 mg/kg, iv or 5 mg/kg, po and measured upto 8 hrs post dose by LC-MS/MS analysis; format: ADME, organism-based
[10] = Protein binding in Wistar Han male rat plasma at 1 mg/kg, iv or 5 mg/kg, po and measured upto 8 hrs post dose by LC-MS/MS analysis; format: ADME, organism-based; conditions: read-out: PPB
[11] = Solubility of compound in FaSSIF; format: physicochemical
[12] = Clearance in Wistar Han male rat plasma at 1 mg/kg, iv or 5 mg/kg, po and measured upto 8 hrs post dose by LC-MS/MS analysis; format: ADME, organism-based
[13] = Volume of distribution in Wistar Han male rat plasma at 0.05 mg/kg, iv and measured upto 8 hrs post dose by LC-MS/MS analysis; format: ADME, organism-based
[14] = Clearance in Wistar Han male rat plasma at 0.05 mg/kg, iv and measured upto 8 hrs post dose by LC-MS/MS analysis; format: ADME, organism-based
[15] = MRT in Wistar Han male rat plasma at 0.05 mg/kg, iv and measured upto 8 hrs post dose by LC-MS/MS analysis; format: ADME, organism-based
[16] = Protein binding in Wistar Han male rat plasma at 0.05 mg/kg, iv and measured upto 8 hrs post dose by LC-MS/MS analysis; format: ADME, organism-based; conditions: read-out: PPB (converted)

Row | Structure (SMILES) | EC50 [2] [µM] | EC50 [3] [µM] | further results
1 | OC[C@@H](O[C@H]1CCCN(Cc2ncc[nH]2)[C@H]1c1ccccc1)c1cc(Cl)cc(Cl)c1 | > 200 | 47 | solubility [1]: 120 µM (≈ 53.6 µg/mL); EC50 [4]: > 164 µM; Papp [5]: 20 nm/s
2 | O=C(O)c1ccc(CN2CCC[C@H](O[C@H](CO)c3cc(Cl)cc(Cl)c3)[C@@H]2c2ccccc2)cc1 | 77 | – | solubility [1]: 85 µM (≈ 42.5 µg/mL)
3 | Cc1cc(C(=O)O)ccc1CN1C(=O)CC[C@H](OCc2cc(Cl)cc(Cl)c2)[C@@H]1c1ccccc1 | > 200 | 169 | –
4 | Cc1cc(C(=O)O)ccc1CN1CCC[C@H](O[C@H](CO)c2cc(Cl)cc(Cl)c2)[C@@H]1c1ccccc1 | – | – | MRT [6]: 2.3 h; solubility [7]: 196 µM (≈ 101 µg/mL); solubility [1]: 157 µM (≈ 80.8 µg/mL); bioavailability [8]: 62%; Vd [9]: 0.33 L/kg; fraction unbound at 8 h [10]: 0.001; solubility [11]: 36 µM (≈ 18.5 µg/mL); clearance [12]: 0.15 L/h/kg; Papp [5]: 220 nm/s
5 | O=C(O)c1ccc(CN2CCC[C@H](O[C@H](CO)c3cc(Cl)cc(Cl)c3)[C@@H]2c2ccccc2)c([N+](=O)[O-])c1 | – | – | Vd [13]: 0.45 L/kg; clearance [14]: 0.486 L/h/kg; solubility [7]: 172 µM (≈ 93.8 µg/mL); solubility [1]: 110 µM (≈ 60 µg/mL); MRT [15]: 0.9 h; fraction unbound at 8 h [16]: < 0.001; solubility [11]: 112 µM (≈ 61.1 µg/mL); Papp [5]: 100 nm/s
6 | Nc1cc(C(=O)O)ccc1CN1CCC[C@H](O[C@H](CO)c2cc(Cl)cc(Cl)c2)[C@@H]1c1ccccc1 | – | – | Vd [13]: 0.5 L/kg; clearance [14]: 0.264 L/h/kg; solubility [7]: 126 µM (≈ 64.9 µg/mL); solubility [1]: 78 µM (≈ 40.2 µg/mL); MRT [15]: 1.9 h; fraction unbound at 8 h [16]: 0.002; solubility [11]: 137 µM (≈ 70.6 µg/mL); Papp [5]: 210 nm/s
7 | CC(=O)NS(=O)(=O)c1ccc(CN2CCC[C@H](O[C@H](CO)c3cc(Cl)cc(Cl)c3)[C@@H]2c2ccccc2)cc1 | > 200 | 14 | –
8 | Cc1cc(C(=O)O)ccc1CN1CC[C@H](OC(CO)c2cc(Cl)cc(Cl)c2)[C@@H]1c1ccccc1 (stereo not given in full) | 185 | 133 | –
9 | Cc1cc(C(=O)O)ccc1CN1CCC[C@H](O[C@H](CO)c2cc(Cl)cc(Cl)c2)[C@@H]1c1cccc(F)c1 | – | 12 | –
10 | Cc1cc(C(=O)O)ccc1C(C)N1CCC[C@H](O[C@H](CO)c2cc(Cl)cc(Cl)c2)[C@@H]1c1ccccc1 (stereo not given in full) | – | 18 | –
11 | Cc1cc(C(=O)O)ccc1CN1CCC[C@H](O[C@H](CO)c2cc(Cl)cc(Cl)c2)[C@@H]1C1CCCCC1 | > 200 | 65 | –

The next lines start with results.

Row | EC50 [2] [µM] | EC50 [3] [µM] | Structure (SMILES) | further results
12 | > 200 | > 200 | Cc1cc(C(=O)O)ccc1C(=O)N1CCC[C@H](O[C@H](CO)c2cc(Cl)cc(Cl)c2)[C@@H]1c1ccccc1 | –
13 | > 200 | 12 | O=C(O)C12CC(CN3CCC[C@H](O[C@H](CO)c4cc(Cl)cc(Cl)c4)[C@@H]3c3ccccc3)(C1)C2 | –
14 | > 200 | 43 | Cc1cc(C(=O)O)ccc1CN1CCC[C@@]2(C[C@@H](c3ccccc3)CO2)[C@@H]1c1ccccc1 | –
15 | > 200 | 50 | Cc1cc(C(=O)O)ccc1CN1CCC[C@H](O[C@H](CO)c2ccnc(Cl)c2)[C@@H]1c1ccccc1 | –
16 | 130 | 36 | Cc1cc(C(=O)O)ccc1CN1C(C)CC[C@H](O[C@H](CO)c2cc(Cl)cc(Cl)c2)[C@@H]1c1ccccc1 (stereo not given in full) | –
17 | – | 18 | Cc1cc(C(=O)O)ccc1CN1CCC[C@H](O[C@H](CO)c2cc(Cl)cc(Cl)c2)[C@@H]1c1ccc(F)cc1 | –
18 | > 200 | 81 | COc1cccc([C@@H](CO)O[C@H]2CCCN(Cc3ccc(C(=O)O)cc3C)[C@H]2c2ccccc2)c1 | –
19 | > 200 | 25 | Cc1cc(C(=O)O)ccc1CN1CCC[C@H](O[C@H](CO)c2ccccc2)[C@@H]1c1ccccc1 | –
20 | 121 | 17 | Cc1cc(C(=O)O)ccc1CN1CCC[C@H](OC(c2cc(Cl)cc(Cl)c2)C(C)(C)O)[C@@H]1c1ccccc1 (stereo not given in full) | –
21 | – | 47 | Cc1cc(C(=O)O)ccc1CN1CCC[C@H](O[C@H](CO)c2cc(Cl)cc(Cl)c2)[C@@H]1c1cccnc1 (racemic) | –
